{
  "source": "patent US6455540B1",
  "about": "“Methods of use of quinolone compounds against anaerobic pathogenic bacteria” (priority 1999, dated 2002)",
  "key": {"[1]": {"system": "Prevotella buccae-oris group", "assay": "Agar dilution MIC", "format": "cell-based"}, "Prevotella bivia": {"system": "Prevotella bivia", "assay": "Agar dilution MIC", "format": "cell-based"}, "Bilophila wadsworthia": {"system": "Bilophila wadsworthia", "assay": "Agar dilution MIC", "format": "cell-based"}, "Veillonella spp.": {"system": "Veillonella spp.", "assay": "Agar dilution MIC", "format": "cell-based"}, "[2]": {"system": "Prevotella heparinolytica", "assay": "Agar dilution MIC", "format": "cell-based"}, "Porphyromonas spp.": {"system": "Porphyromonas spp.", "assay": "Agar dilution MIC", "format": "cell-based, Porphyromonas cangingivalis, cansulci, circumdentaria, levii"}, "Clostridium ramosum": {"system": "Clostridium ramosum", "assay": "Agar dilution MIC", "format": "cell-based"}, "[3]": {"system": "Anaerobiospirillum succiniciproducens", "assay": "Agar dilution MIC", "format": "cell-based"}, "Bacteroides tectum": {"system": "Bacteroides tectum", "assay": "Agar dilution MIC", "format": "cell-based"}, "[4]": {"system": "Peptostreptococcus asaccharolyticus", "assay": "Agar dilution MIC", "format": "cell-based"}, "Clostridium dfficile": {"system": "Clostridium dfficile", "assay": "Agar dilution MIC", "format": "cell-based, Clostridium difficile"}, "[5]": {"system": "Fusobacterium spp. group 2", "assay": "Agar dilution MIC", "format": "cell-based, Fusobacterium mortiferum, necrogenes, ulcerans", "settings": "Fusobacterium"}, "peptostreptococci": {"system": "peptostreptococci", "assay": "Agar dilution MIC, peptostreptococci as a group", "format": "cell-based, P. asaccharolyticus, P. magnus, P. micros, P. prevotii", "settings": "45 strains of peptostreptococci from 4 species; read-out: concentration to which all strains were susceptible (MIC)"}, "[6]": {"system": "Peptostreptococcus micros", "assay": "Agar dilution MIC", "format": "cell-based"}, "F. necrophorum": {"system": "F. necrophorum", "assay": "Agar dilution MIC", "format": "cell-based", "settings": "Fusobacterium necrophorum; read-out: concentration to which strains were susceptible (MIC)"}, "[7]": {"system": "Fusobacterium spp group 1", "assay": "Agar dilution MIC", "format": "cell-based"}, "Actinomyces israelii": {"system": "Actinomyces israelii", "assay": "Agar dilution MIC", "format": "cell-based"}, "[8]": {"system": "Peptostreptococcus prevotii", "assay": "Agar dilution MIC", "format": "cell-based"}, "[9]": {"system": "Porphyromonas asaccharolyticus", "assay": "Agar dilution MIC", "format": "cell-based, Porphyromonas asaccharolytica"}, "[10]": {"settings": "Porphyromonas, read-out: Minimal Inhibitory Concentration 50% (MIC50)"}, "[11]": {"settings": "Porphyromonas, 11 isolates, read-out: Minimal Inhibitory Concentration 90% (MIC90)"}},
  "data": [
    {"smiles": "CO/N=C1\\CN(c2nc3c(cc2F)c(=O)c(C(=O)O)cn3C2CC2)CC1CN", "note": "(racemic) [Gemifloxacin, (R,S)-7-(3-aminomethyl-4-methoxyiminopyrrolidin-1-yl)-1-cyclopropyl-6-fluoro-4-oxo-1,4-dihydro-1,8-naphthyridine-3-carboxylic acid]", "values": [
      {"measurement": "Minimal Inhibitory Concentration Range", "setting": "[1]; 22 isolates", "result": "0.5 to 8", "unit": "µg/mL"},
      {"measurement": "MIC90", "setting": "[1]; Prevotella, 22 isolates, read-out: Minimal Inhibitory Concentration 90% (MIC90)", "result": "≤ 2", "unit": "µg/mL"},
      {"measurement": "MIC50", "setting": "[1]; Prevotella, read-out: Minimal Inhibitory Concentration 50% (MIC50)", "result": 2, "unit": "µg/mL"},
      {"measurement": "Minimal Inhibitory Concentration 90% (MIC90)", "setting": "Prevotella bivia; 21 isolates", "result": 8, "unit": "µg/mL"},
      {"measurement": "MIC90", "setting": "Prevotella bivia; Prevotella bivia, 21 isolates, read-out: Minimal Inhibitory Concentration 90% (MIC90)", "result": "≥ 4", "unit": "µg/mL"},
      {"measurement": "MIC50", "setting": "Prevotella bivia; Prevotella bivia, read-out: Minimal Inhibitory Concentration 50% (MIC50)", "result": 8, "unit": "µg/mL"},
      {"measurement": "Minimal Inhibitory Concentration 90% (MIC90)", "setting": "Bilophila wadsworthia; 16 isolates, agar supplemented with pyruvate", "result": 4, "unit": "µg/mL"},
      {"measurement": "MIC90", "setting": "Bilophila wadsworthia; Bilophila wadsworthia, 16 isolates, agar supplemented with pyruvate, read-out: Minimal Inhibitory Concentration 90% (MIC90)", "result": "≥ 4", "unit": "µg/mL"},
      {"measurement": "MIC50", "setting": "Bilophila wadsworthia; Bilophila wadsworthia, read-out: Minimal Inhibitory Concentration 50% (MIC50)", "result": 0.25, "unit": "µg/mL"},
      {"measurement": "Minimal Inhibitory Concentration 90% (MIC90)", "setting": "Veillonella spp.; 24 isolates", "result": 8, "unit": "µg/mL"},
      {"measurement": "MIC90", "setting": "Veillonella spp.; Veillonella, 24 isolates, read-out: Minimal Inhibitory Concentration 90% (MIC90)", "result": "≥ 4", "unit": "µg/mL"},
      {"measurement": "MIC50", "setting": "Veillonella spp.; Veillonella, read-out: Minimal Inhibitory Concentration 50% (MIC50)", "result": 1, "unit": "µg/mL"},
      {"measurement": "Minimal Inhibitory Concentration 90% (MIC90)", "setting": "[2]; 16 isolates", "result": 0.5, "unit": "µg/mL"},
      {"measurement": "Minimal Inhibitory Concentration Range", "setting": "[2]; 16 isolates", "result": "0.25 to 0.5", "unit": "µg/mL"},
      {"measurement": "Minimal Inhibitory Concentration 90% (MIC90)", "setting": "[2]; 16 isolates, listed as gemifloxacin", "result": "≤ 2", "unit": "µg/mL"},
      {"measurement": "MIC50", "setting": "[2]; Prevotella heparinolytica, read-out: Minimal Inhibitory Concentration 50% (MIC50)", "result": 0.5, "unit": "µg/mL"},
      {"measurement": "Minimal Inhibitory Concentration Range", "setting": "Porphyromonas spp.; 11 isolates", "result": "0.06 to 0.125", "unit": "µg/mL"},
      {"measurement": "MIC50", "setting": "Porphyromonas spp.; [10]", "result": 0.06, "unit": "µg/mL"},
      {"measurement": "MIC90", "setting": "Porphyromonas spp.; [11]", "result": 0.125, "unit": "µg/mL"},
      {"measurement": "Minimal Inhibitory Concentration Range", "setting": "Clostridium ramosum; 10 isolates", "result": "0.125 to 2", "unit": "µg/mL"},
      {"measurement": "MIC50", "setting": "Clostridium ramosum; Thomasclavelia ramosa, read-out: Minimal Inhibitory Concentration 50% (MIC50)", "result": 0.25, "unit": "µg/mL"},
      {"measurement": "MIC90", "setting": "Clostridium ramosum; Thomasclavelia ramosa, 10 isolates, read-out: Minimal Inhibitory Concentration 90% (MIC90)", "result": 1, "unit": "µg/mL"},
      {"measurement": "Minimal Inhibitory Concentration Range", "setting": "[3]; 3 isolates", "result": "0.5 to 2", "unit": "µg/mL"},
      {"measurement": "MIC50", "setting": "[3]; Anaerobiospirillum succiniciproducens, read-out: Minimal Inhibitory Concentration 50% (MIC50)", "result": 1, "unit": "µg/mL"},
      {"measurement": "Minimal Inhibitory Concentration 90% (MIC90)", "setting": "Bacteroides tectum; 22 isolates", "result": 0.25, "unit": "µg/mL"},
      {"measurement": "Minimal Inhibitory Concentration Range", "setting": "Bacteroides tectum; 22 isolates", "result": "0.06 to 8", "unit": "µg/mL"},
      {"measurement": "Minimal Inhibitory Concentration 90% (MIC90)", "setting": "Bacteroides tectum; 22 isolates, listed as gemifloxacin", "result": "≤ 2", "unit": "µg/mL"},
      {"measurement": "MIC50", "setting": "Bacteroides tectum; Bacteroides pyogenes, read-out: Minimal Inhibitory Concentration 50% (MIC50)", "result": 0.125, "unit": "µg/mL"},
      {"measurement": "Minimal Inhibitory Concentration Range", "setting": "[4]; 11 isolates", "result": "0.125 to 0.25", "unit": "µg/mL"},
      {"measurement": "MIC50", "setting": "[4]; Peptoniphilus asaccharolyticus, read-out: Minimal Inhibitory Concentration 50% (MIC50)", "result": 0.25, "unit": "µg/mL"},
      {"measurement": "MIC90", "setting": "[4]; Peptoniphilus asaccharolyticus, 11 isolates, read-out: Minimal Inhibitory Concentration 90% (MIC90)", "result": 0.25, "unit": "µg/mL"},
      {"measurement": "susceptibility to gemifloxacin", "setting": "Clostridium dfficile", "result": "often resistant"},
      {"measurement": "Minimal Inhibitory Concentration 90% (MIC90)", "setting": "Clostridium dfficile; 14 isolates", "result": ">8", "unit": "µg/mL"},
      {"measurement": "MIC50", "setting": "Clostridium dfficile; Clostridium, read-out: Minimal Inhibitory Concentration 50% (MIC50)", "result": 2, "unit": "µg/mL"},
      {"measurement": "MIC90", "setting": "Clostridium dfficile; Clostridium, read-out: Minimal Inhibitory Concentration 90% (MIC90), 14 isolates", "result": "≥ 4", "unit": "µg/mL"},
      {"measurement": "MIC50", "setting": "[5]; read-out: Minimal Inhibitory Concentration 50% (MIC50)", "result": 4, "unit": "µg/mL"},
      {"measurement": "MIC90", "setting": "[5]; 12 isolates, read-out: Minimal Inhibitory Concentration 90% (MIC90)", "result": 4, "unit": "µg/mL"},
      {"measurement": "MIC", "setting": "peptostreptococci", "result": "≤ 0.25", "unit": "µg/mL"},
      {"measurement": "Minimal Inhibitory Concentration Range", "setting": "[6]; 12 isolates", "result": "0.06 to 0.125", "unit": "µg/mL"},
      {"measurement": "MIC50", "setting": "[6]; Parvimonas micra, read-out: Minimal Inhibitory Concentration 50% (MIC50)", "result": 0.06, "unit": "µg/mL"},
      {"measurement": "MIC90", "setting": "[6]; Parvimonas micra, 12 isolates, read-out: Minimal Inhibitory Concentration 90% (MIC90)", "result": 0.06, "unit": "µg/mL"},
      {"measurement": "MIC", "setting": "F. necrophorum", "result": "≤ 2", "unit": "µg/mL"},
      {"measurement": "Minimal Inhibitory Concentration Range", "setting": "[7]; 19 isolates", "result": "0.06 to 8", "unit": "µg/mL"},
      {"measurement": "MIC50", "setting": "[7]; Fusobacterium, GROUP1, read-out: Minimal Inhibitory Concentration 50% (MIC50)", "result": 0.25, "unit": "µg/mL"},
      {"measurement": "MIC90", "setting": "[7]; Fusobacterium, GROUP1, 19 isolates, read-out: Minimal Inhibitory Concentration 90% (MIC90)", "result": 8, "unit": "µg/mL"},
      {"measurement": "Minimal Inhibitory Concentration Range", "setting": "Actinomyces israelii; 6 isolates", "result": "0.5 to 2", "unit": "µg/mL"},
      {"measurement": "MIC50", "setting": "Actinomyces israelii; Actinomyces israelii, read-out: Minimal Inhibitory Concentration 50% (MIC50)", "result": 1, "unit": "µg/mL"},
      {"measurement": "MIC90", "setting": "Actinomyces israelii; Actinomyces israelii, stated in text only", "result": "≤ 2", "unit": "µg/mL"},
      {"measurement": "Minimal Inhibitory Concentration Range", "setting": "[8]; 9 isolates", "result": "0.06 to 0.25", "unit": "µg/mL"},
      {"measurement": "MIC50", "setting": "[8]; Anaerococcus prevotii, read-out: Minimal Inhibitory Concentration 50% (MIC50)", "result": 0.125, "unit": "µg/mL"},
      {"measurement": "Minimal Inhibitory Concentration Range", "setting": "[9]; 11 isolates", "result": "0.06 to 0.125", "unit": "µg/mL"},
      {"measurement": "MIC50", "setting": "[9]; [10]", "result": 0.06, "unit": "µg/mL"},
      {"measurement": "MIC90", "setting": "[9]; [11]", "result": 0.125, "unit": "µg/mL"}
    ]}
  ]
}
